From US7504390B2, “Benzoxazepine derivatives and their use as AMPA receptor stimulators” (N.V. Organon, priority 2001, dated 2009)

Test system: AMPA receptor
Experiment: Patch clamp whole cell electrophysiology: glutamate-evoked steady state current in cultured hippocampal neurons
Assay type: cell-based, Sprague-Dawley rats
Settings: 10 μM compound in extracellular solution; glutamate 0.5 mM; holding potential −60 mV; cultured rat hippocampal neurons
Source text: The benzoxazepines of the invention are AMPA receptor stimulators, as can be determined by an increase in steady state current induced by application of glutamate in a conventional whole cell patch clamp method when a benzoxazepine of the invention is present (see Example 30 and Table I). The compounds may be used in the treatment of neurological and psychiatric diseases where an enhancement of synaptic responses mediated by AMPA receptors is required, such as neuro-degenerative disorders, cognitive or memory dysfunction, memory and learning disorders such as can result from ageing, attention disorder, trauma, stroke, epilepsy, Alzheimer's disease, depression, schizophrenia, psychotic disorders, anxiety, sexual dysfunctions, autism, or a disorder or disease resulting from neurotic agents or substance abuse, and alcohol intoxication.
Hippocampal neurons were prepared from embryonic or 1-3 day old Sprague-Dawley rats which were decapitated and the heads immediately placed in ice cold HBS (HEPES Buffered Solution: 130 mM NaCl, 5.4 mM KCl, 10 mM HEPES, 1.0 mM MgCl2, 1.8 CaCl2, 25 mM glucose, adjusted to pH 7.4). The whole brain was excised and placed on pre-sterilised filter paper, soaked in HBS and the cerebellum was removed. The brain was chopped and an enzyme solution (0.5 mg/ml protease X and 0.5 mg/ml protease in HBS) was added and subsequently left for 40 minutes at room temperature to digest before trituration. Cells were resuspended and then counted to give a final concentration of 1.5×10^8 per ml. Cells were aliquoted onto poly-D-lysine- and Matrigel®-treated coverslips and left to incubate at 37° C. for 1-2 hours. When incubation was complete, 1 ml of growth medium was added to each well containing a coverslip and the cells were returned to the incubator. After 3-5 days the mitotic inhibitor cytosine arabinoside (5 μM) was added and the cells returned to the incubator until required.
The whole cell configuration of the patch clamp technique (Hamill et al., Pflũgers Arch. 1981, 39, 85-100) was used to measure glutamate-evoked currents from postnatal hippocampal neurons maintained in culture for 4-7 days. A glass coverslip containing the culture was transferred to the recording chamber (Warner Instrument Corp., Hamden, Conn.) mounted on the stage of an inverted microscope (Nikon, Kingston, UK). The recording chamber contained 1-2 ml extracellular solution (145 mM NaCl, 5.4 mM KCl, 10 mM HEPES, 0.8 mM MgCl2, 1.8 CaCl2, 10 mM glucose and 30 mM sucrose, adjusted to pH 7.4 with 1M NaOH) and was constantly perfused at a rate of 1 ml/min. Recordings were performed at room temperature (20-22° C.) using an Axopatch 200B amplifier (Axon Instruments Ltd., Foster City, Calif.). Data acquisition and analysis was performed using Signal software (Cambridge electronic Design Ltd., Cambridge, UK). Pipettes were manufactured from GC120F-10 glass (Harvard Apparatus, Edenbridge UK) using a model P-87 electrode puller (Sutter Instruments Co., Novarto, Calif.). The patch electrodes had typical resistances of between 3-5 MΩ when filled with intracellular solution (140 mM potassium gluconate, 20 mM HEPES, 1.1 mM EGTA, 5 mM phosphocreatine, 3 mM ATP, 0.3 mM GTP, 0.1 mM CaCl2, 5 mM MgCl2, adjusted to pH 7.4 with 1M KOH).
Cells were voltage clamped at a holding potential of −60 mV and glutamate (0.5 mM) was applied using a 12 channel semi-rapid drug application device (DAD-12. Digitimer Ltd., Welwyn Garden City, UK). The agonist glutamate was applied for 1 s every 30 s. […] Between applications saline flowed to clear any dead volume in the system. For each application steady-state currents were plotted from the difference in baseline and steady state current and averaged over 300 ms.
Two solutions of the compound in extracellular solution were made up, one with glutamate and one without. The protocol was: 10 second application of compound, 1 second application of compound+glutamate and then 10 second wash with saline, then a 10 second delay. […]

First: O=S1(=O)c2ccccc2OC[C@@H]2CCCN21 [Example 10, (S)-2,3,11,11,a-tetrahydro-1H,5H-pyrrolo[2,1-c][5,1,4]benzthiaoxazepine-5-dioxide]
Second: O=C1c2ccccc2OC[C@@H]2CCCN12 [(S)-2,3,11,11a-tetrahydro-1H,5H-pyrrolo[2,1-c][1,4]benzoxazepine-5-one, reference compound]
The “% Increase In steady state current at 10 μM” value of the first is lower: 7% for the first, 53% for the second.

Going from `O=C1c2ccccc2OC[C@@H]2C[C@@H](O)CN12` [Example 25, (2R,11aS)-2-Hydroxy-2,3,11,11a-tetrahydro-1H,5H-pyrrolo[2,1-c][1,4]benzoxazepine-5-one] to `O=C1c2ccccc2OC[C@@H]2C[C@H](F)CN12` [Example 26, (2S,11aS)2-Fluoro-23,11,11a-tetrahydro-1H,5H-pyrrolo[2,1-c][1,4]benzoxazepine-5-one], the “% Increase In steady state current at 10 μM” value falls from 31% to 24%.

Going from `COc1ccc2c(c1)OC[C@@H]1CCCN1C2=O` [Example 11, (S)-8-Methoxy-2,3,11,11a-tetrahydro-1H,5H-pyrrolo[2,1-c][1,4]benzoxazepine-5-one] to `O=C1c2cc(F)ccc2OC[C@H]2CCCN12` [Example 1, (R)-7-Fluoro-2,3,11,11a-tetrahydro-1H,5H-pyrrolo[2,1-c][1,4]benzoxazepine-5-one], the “% Increase In steady state current at 10 μM” value falls from 21% to 17%.

First: NC(=O)c1ccc2c(c1)C(=O)N1CCC[C@H]1CO2 [Example 17A, (S)-7-(aminocarbonyl)-2,3,11,11a-tetrahydro-1H,5H-pyrrolo[2,1-c][1,4]benzoxazeline-5-one]
Second: O=C1c2cc(F)ccc2OC[C@@H]2CCCN12 [Example 2, (S)-7-Fluoro-2,3,11,11a-tetrahydro-1H,5H-pyrrolo[2,1-c][1,4]benzoxazepine-5-one]
The “% Increase In steady state current at 10 μM” value of the first is lower: 8% for the first, 19% for the second.

Compared with `CC[C@@H]1Oc2ccccc2C(=O)N2CCC[C@@H]12` [Example 20B, (11S. 11aS)-11-Ethyl-2,3,11,11a-tetrahydro-1H,5H-pyrrolo[2,1-c][1,4]benzoxazepine-5-one], `CC[C@H]1Oc2ccccc2C(=O)N2CCC[C@@H]12` [Example 20A, (11R, 11aS)-11-Ethyl-2,3,11,11a-tetrahydro-1H,5H-pyrrolo[2,1-c][1,4]benzoxazepine-5-one] is higher in “% Increase In steady state current at 10 μM” value: 28% for the first, 31% for the second.

First: O=C1c2cccc(F)c2OC[C@H]2CCCN12 [Example 3A, (R)-9-Fluoro-2,3,11,11a-tetrahydro-1H,5H-pyrrolo[2,1c][1,4]benzoxazepine-5-one]
Second: O=C1c2cccc(F)c2OC[C@@H]2CCCN12 [Example 3B, (S)-9-Fluoro-2,3,11,11a-tetrahydro-1H,5H-pyrrolo[2,1-c][1,4]benzoxazepine-5-one]
The “% Increase In steady state current at 10 μM” value of the first is higher: 23% for the first, 20% for the second.

Compared with `CC1(C)COC2COc3ccccc3C(=O)N21` (stereo not drawn) [Example 24, 2,11,11a-Trihydro-3,3dimethyloxazolidinyl[2,1-c][1,4]-benzoxazepin-5-one], `O=C1c2ccccc2OC[C@@H]2CCN12` [Example 23, (S)-1,2,10,10a-Tetrahydroazetidinyl[2,1-c][1,4]benzoxazepin-4-one] is lower in “% Increase In steady state current at 10 μM” value: 18% for the first, 16% for the second.

Going from `O=C1c2ccccc2OC[C@H]2CCCN12` [(R)-2,3,11,11a-tetrahydro-1H,5H-pyrrolo[2,1-c][1,4]benzoxazepine-5-one, reference compound] to `O=C1c2ccccc2OCC2COCCN12` (stereo not drawn) [Example 22, 6,6a-Dihydro-12H-Morpholino[3,4-c][1,4]benzoxazepin-12-one], the “% Increase In steady state current at 10 μM” value rises from 24% to 31%.

Going from `O=C1c2ccccc2OC[C@@H]2CC(F)(F)CN12` [Example 28, (2S)-2,2-Difluoro-2,3,11,11a-tetrahydro-1H,5H-pyrrolo[2,1-c][1,4]benzoxazepine-5-one] to `CC(=O)Nc1ccc2c(c1)C(=O)N1CCC[C@H]1CO2` [Example 14, (S)-N-(2,3,11,11a-tetrahydro-5-oxo-1H,5H-pyrrolo[2,1-a][1,4]benzoxazepin-7-yl)-acetamide], the “% Increase In steady state current at 10 μM” value rises from 9% to 49%.

For `O=C(c1ccc2c(c1)C(=O)N1CCC[C@H]1CO2)N1CCOCC1` [Example 16A, (S)-7-(morpholinocarbonyl)-2,3,11,11a-tetrahydro-1H,5H-pyrrolo[2,1-c][1,4]-benzoxazepine-5-one], the “% Increase In steady state current at 10 μM” value was 24%.

Test system: not listed separately
Experiment: Differential Reinforcement of Low Rates of Responding, 72 Seconds (DRL72)
Assay type: in vivo
Settings: rats; intraperitoneal route 30 minutes before the test session
Experimental: Rats are pretrained in a standard operant chamber to perform a DRL72 procedure according to Andrews et al (Andrews J S, Jansen J H M, Linders S, Princen A, Drinkenburg W H I M, Coenders C J H and Vossen J H M (1994). Effects of imipramine and mirtazapine on operant performance in rats. Drug Development Research, 32:58-66). The test session lasts for 60 minutes with no limit to the number of trials. Each trial begins with the stimulus light on above the active lever. A response on the lever only results in delivery of a pellet if 72 seconds has elapsed. A response on the lever before 72 seconds has elapsed resets the timer and is not rewarded. The number of pellets earned and the number of lever presses is recorded and used to calculate an efficiency score. Test compounds are administered via the intraperitoneal route 30 minutes before the start of the test session. Antidepressants increase the number of pellets earned and decrease the number of lever presses (Andrews et al, 1994).

With `O=C1c2cccc(F)c2OC[C@@H]2CCCN12` [Example 3B, (S)-9-Fluoro-2,3,11,11a-tetrahydro-1H,5H-pyrrolo[2,1-c][1,4]benzoxazepine-5-one] the “antidepressant like profile in DRL72” value was “antidepressant like profile”.

Test system: not listed separately
Experiment: Inhibition of amphetamine-induced hyperlocomotion
Assay type: in vivo
Settings: mice; sc, 30 minutes before 1.5 mg/kg d-amphetamine sulphate sc; measured for 60 minutes
Experimental: Mice were injected sc with drug or vehicle control. 30 Minutes later mice were injected sc with 1.5 mg/kg d-amphetamine sulphate or saline and immediately placed in infra red locomotor boxes where locomotor activity (long duration beam breaks of two adjacent beams) and stereotypic behaviour (repetitive short-duration beam breaks) were measured for a period of 60 minutes. The experiment was analysed using a 3-Way ANOVA with experimental session, infra red locomotor boxes and treatment as factors, and in the case of treatment, significant effects were followed up using a Tukey (HSD) test.

For `O=C1c2cccc(F)c2OC[C@H]2CCCN12` [Example 3A, (R)-9-Fluoro-2,3,11,11a-tetrahydro-1H,5H-pyrrolo[2,1c][1,4]benzoxazepine-5-one], the “antipsychotic like activity (inhibited amphetamine induced hyperlocomotion)” value was “antipsychotic like activity”.
For `O=C1c2ccccc2OC[C@@H]2CCCN12` [(S)-2,3,11,11a-tetrahydro-1H,5H-pyrrolo[2,1-c][1,4]benzoxazepine-5-one, reference compound], the “antipsychotic like activity (inhibited amphetamine induced hyperlocomotion)” value was “antipsychotic like activity”.

Test system: not given
Experiment: not given
Settings: not given

First: N#Cc1ccc2c(c1)C(=O)N1CCC[C@@H]1CO2 [Example 19, (R)-7-Cyano-2,3,11,11a-tetrahydro-1H5H-pyrrolo[2,1-c][1,4]benzoxazepine-5-one]
Second: O=C1c2ccc(Cl)cc2OC[C@H]2CCCN12 [Example 4, (R)-8-chloro-2,3,11,11a-tetrahydro-1H,5H-pyrrolo[2,1-c][1,4]benzoxazepine-5-one]
The melting point of the first is higher: 164 to 165 °C for the first, 92 to 94 °C for the second.

Compared with `O=C1c2ccc(F)cc2OC[C@@H]2CCCN12` [Example 5, (S)-8-fluoro-2,3,11,11a-tetrahydro-1H,5H-pyrrolo[2,1-c][1,4]benzoxazepine-5-one], `O=C1c2cccc(Cl)c2OC[C@@H]2CCCN12` [Example 8, (S)-9-Chloro-2,3,11,11a-tetrahydro-1H,5H-pyrrolo[2,1-c][1,4]benzoxazepine-5-one] is higher in melting point: 75 to 76 °C for the first, 89 to 90 °C for the second.

Molecule `O=C(c1ccc2c(c1)C(=O)N1CCC[C@H]1CO2)N1CCCCC1` [Example 15, (S)-7-(Piperidinocarbonyl)-2,3,11,11a-tetrahydro-1H,5H-pyrrolo[2,1-c][1,4]benzoxazepine-5] has a melting point of 140 to 140.5 °C.
